Key:
healthy subjects [1] = assay: SAD study: safety and tolerability; assay type: in vivo, human
healthy subjects [2] = assay: MAD study: safety and tolerability; assay type: in vivo, human
[3] = SAD Parts A and C, Total TS‐134 fed (n = 8)
[4] = SAD, 20 mg fasted treatment group
[5] = MAD Cohort 1, 5–10 mg fed (n = 8)
[6] = MAD Cohort 2, 5–20 mg fed (n = 8)
[7] = MAD Cohort 3, 5–40 mg fed (n = 8)
[8] = MAD Cohort 4, 5–60 mg fed (n = 8)
[9] = MAD Cohort 5, 10–80 mg fed (n = 8)
[10] = MAD Cohort 6, 10–80 mg fed (n = 7)
[11] = MAD, 80 mg MP in Cohort 5, data not shown

Question: For `CC(C)[C@@H]1CC[C@@H](C)C[C@H]1OC(=O)O[C@@H](C)OC(=O)[C@H]1[C@@H]2C[C@H](F)[C@@](N)(C(=O)O)[C@@H]21.O=S(=O)(O)c1ccccc1` [TS‐134, (1S,2S,3S,5R,6S)‐2‐amino‐3‐ fluoro‐6‐({(1S)‐1‐[({[(1R,2S,5R)‐5‐methyl‐2‐(propan‐2‐yl)cyclohexyl]oxy}carbonyl)oxy]ethoxy}carbonyl)bicyclo[3.1.0]hexane‐2‐carboxylic acid monobenzenesulfonate], which Pruritus (healthy subjects [1]; [3]) is on record?
Answer: The Pruritus was 0 Number of subjects (%).

Question: What about the Somnolence (healthy subjects [1]; [3]) of the same molecule?
Answer: The Somnolence was 0 Number of subjects (%).

Question: What about the “Total number of TEAEs” value (healthy subjects [1]; [3]) of the same molecule?
Answer: The value was 7.

Question: What about the Vomiting (healthy subjects [1]; [3]) of the same molecule?
Answer: Its Vomiting is 1 (12.5) Number of subjects (%).

Question: What about the “reports of severe nausea” value (healthy subjects [1]; [4]) of the same molecule?
Answer: The value was 1 report.

Question: What about the “reports of severe vomiting” value (healthy subjects [1]; [4]) of the same molecule?
Answer: Its value is 2 reports.

Question: And the “dose up to which a single dose was tolerated” value (healthy subjects [1]; SAD, single oral dose TS‐134 solution)?
Answer: The value was “up to 10 mg”.

Question: And the “deaths or serious adverse events” value (healthy subjects [1]; both studies)?
Answer: The value was “no deaths or serious adverse events”.

Question: What about the “dose up to which multiple dose titration was tolerated” value (healthy subjects [2]; 14‐day MAD, titration schemes under fed conditions) of the same molecule?
Answer: The value was “up to 80 mg”.

Question: What about the Abnormal dreams (healthy subjects [2]; [5]) of the same molecule?
Answer: Its Abnormal dreams is 0 Number of subjects (%).

Question: And the Dizziness (healthy subjects [2]; [5])?
Answer: The Dizziness was 0 Number of subjects (%).

Question: And the Headache (healthy subjects [2]; [5])?
Answer: The Headache was 1 (12.5) Number of subjects (%).

Question: And the Insomnia (healthy subjects [2]; [5])?
Answer: Its Insomnia is 0 Number of subjects (%).

Question: And the Nausea (healthy subjects [2]; [5])?
Answer: Its Nausea is 2 (25.0) Number of subjects (%).

Question: And the “Number of subjects with at least 1 TEAE” value (healthy subjects [2]; [5])?
Answer: The value was 5 (62.5) Number of subjects (%).

Question: And the “Post lumbar puncture syndrome” value (healthy subjects [2]; [5])?
Answer: The value was 0 Number of subjects (%).

Question: And the Pruritus (healthy subjects [2]; [5])?
Answer: Its Pruritus is 0 Number of subjects (%).

Question: And the Somnolence (healthy subjects [2]; [5])?
Answer: Its Somnolence is 3 (37.5) Number of subjects (%).

Question: What about the “Total number of TEAEs” value (healthy subjects [2]; [5]) of the same molecule?
Answer: The value was 11.

Question: And the Vomiting (healthy subjects [2]; [5])?
Answer: The Vomiting was 0 Number of subjects (%).

Question: And the Abnormal dreams (healthy subjects [2]; [6])?
Answer: Its Abnormal dreams is 0 Number of subjects (%).

Question: What about the Dizziness (healthy subjects [2]; [6]) of the same molecule?
Answer: The Dizziness was 1 (12.5) Number of subjects (%).

Question: And the Headache (healthy subjects [2]; [6])?
Answer: Its Headache is 3 (37.5) Number of subjects (%).

Question: And the Insomnia (healthy subjects [2]; [6])?
Answer: Its Insomnia is 0 Number of subjects (%).

Question: And the Nausea (healthy subjects [2]; [6])?
Answer: The Nausea was 3 (37.5) Number of subjects (%).

Question: And the “Number of subjects with at least 1 TEAE” value (healthy subjects [2]; [6])?
Answer: The value was 5 (62.5) Number of subjects (%).

Question: And the “Post lumbar puncture syndrome” value (healthy subjects [2]; [6])?
Answer: Its value is 0 Number of subjects (%).

Question: And the Pruritus (healthy subjects [2]; [6])?
Answer: The Pruritus was 0 Number of subjects (%).

Question: What about the Somnolence (healthy subjects [2]; [6]) of the same molecule?
Answer: Its Somnolence is 1 (12.5) Number of subjects (%).

Question: And the “Total number of TEAEs” value (healthy subjects [2]; [6])?
Answer: Its value is 17.

Question: And the Vomiting (healthy subjects [2]; [6])?
Answer: The Vomiting was 0 Number of subjects (%).

Question: What about the Abnormal dreams (healthy subjects [2]; [7]) of the same molecule?
Answer: The Abnormal dreams was 0 Number of subjects (%).

Question: What about the Dizziness (healthy subjects [2]; [7]) of the same molecule?
Answer: The Dizziness was 3 (37.5) Number of subjects (%).

Question: What about the Headache (healthy subjects [2]; [7]) of the same molecule?
Answer: The Headache was 3 (37.5) Number of subjects (%).

Question: What about the Insomnia (healthy subjects [2]; [7]) of the same molecule?
Answer: The Insomnia was 0 Number of subjects (%).

Question: And the Nausea (healthy subjects [2]; [7])?
Answer: Its Nausea is 2 (25.0) Number of subjects (%).

Question: What about the “Number of subjects with at least 1 TEAE” value (healthy subjects [2]; [7]) of the same molecule?
Answer: Its value is 5 (62.5) Number of subjects (%).

Question: And the “Post lumbar puncture syndrome” value (healthy subjects [2]; [7])?
Answer: Its value is 0 Number of subjects (%).

Question: And the Pruritus (healthy subjects [2]; [7])?
Answer: The Pruritus was 0 Number of subjects (%).

Question: And the Somnolence (healthy subjects [2]; [7])?
Answer: The Somnolence was 1 (12.5) Number of subjects (%).

Question: And the “Total number of TEAEs” value (healthy subjects [2]; [7])?
Answer: Its value is 16.

Question: What about the Vomiting (healthy subjects [2]; [7]) of the same molecule?
Answer: The Vomiting was 1 (12.5) Number of subjects (%).

Question: And the Abnormal dreams (healthy subjects [2]; [8])?
Answer: The Abnormal dreams was 2 (25.0) Number of subjects (%).

Question: What about the Dizziness (healthy subjects [2]; [8]) of the same molecule?
Answer: The Dizziness was 1 (12.5) Number of subjects (%).

Question: And the Headache (healthy subjects [2]; [8])?
Answer: Its Headache is 5 (62.5) Number of subjects (%).

Question: What about the Insomnia (healthy subjects [2]; [8]) of the same molecule?
Answer: The Insomnia was 3 (37.5) Number of subjects (%).

Question: What about the Nausea (healthy subjects [2]; [8]) of the same molecule?
Answer: The Nausea was 3 (37.5) Number of subjects (%).

Question: And the “Number of subjects with at least 1 TEAE” value (healthy subjects [2]; [8])?
Answer: The value was 8 (100) Number of subjects (%).

Question: And the “Post lumbar puncture syndrome” value (healthy subjects [2]; [8])?
Answer: The value was 0 Number of subjects (%).

Question: And the Pruritus (healthy subjects [2]; [8])?
Answer: The Pruritus was 1 (12.5) Number of subjects (%).

Question: What about the Somnolence (healthy subjects [2]; [8]) of the same molecule?
Answer: The Somnolence was 1 (12.5) Number of subjects (%).

Question: And the “Total number of TEAEs” value (healthy subjects [2]; [8])?
Answer: Its value is 26.

Question: What about the Vomiting (healthy subjects [2]; [8]) of the same molecule?
Answer: Its Vomiting is 2 (25.0) Number of subjects (%).

Question: And the Abnormal dreams (healthy subjects [2]; [9])?
Answer: The Abnormal dreams was 0 Number of subjects (%).

Question: What about the Dizziness (healthy subjects [2]; [9]) of the same molecule?
Answer: Its Dizziness is 0 Number of subjects (%).

Question: What about the Headache (healthy subjects [2]; [9]) of the same molecule?
Answer: The Headache was 3 (37.5) Number of subjects (%).

Question: And the Insomnia (healthy subjects [2]; [9])?
Answer: The Insomnia was 0 Number of subjects (%).

Question: What about the Nausea (healthy subjects [2]; [9]) of the same molecule?
Answer: The Nausea was 3 (37.5) Number of subjects (%).

Question: And the “Number of subjects with at least 1 TEAE” value (healthy subjects [2]; [9])?
Answer: Its value is 7 (87.5) Number of subjects (%).

Question: And the “Post lumbar puncture syndrome” value (healthy subjects [2]; [9])?
Answer: The value was 0 Number of subjects (%).

Question: And the Pruritus (healthy subjects [2]; [9])?
Answer: Its Pruritus is 0 Number of subjects (%).

Question: And the Somnolence (healthy subjects [2]; [9])?
Answer: Its Somnolence is 1 (12.5) Number of subjects (%).

Question: And the “Total number of TEAEs” value (healthy subjects [2]; [9])?
Answer: The value was 30.

Question: And the Vomiting (healthy subjects [2]; [9])?
Answer: Its Vomiting is 0 Number of subjects (%).

Question: What about the Abnormal dreams (healthy subjects [2]; [10]) of the same molecule?
Answer: Its Abnormal dreams is 0 Number of subjects (%).

Question: What about the Dizziness (healthy subjects [2]; [10]) of the same molecule?
Answer: The Dizziness was 3 (42.9) Number of subjects (%).

Question: What about the Headache (healthy subjects [2]; [10]) of the same molecule?
Answer: Its Headache is 1 (14.3) Number of subjects (%).

Question: And the Insomnia (healthy subjects [2]; [10])?
Answer: The Insomnia was 1 (14.3) Number of subjects (%).

Question: What about the Nausea (healthy subjects [2]; [10]) of the same molecule?
Answer: The Nausea was 2 (28.6) Number of subjects (%).

Question: What about the “Number of subjects with at least 1 TEAE” value (healthy subjects [2]; [10]) of the same molecule?
Answer: Its value is 6 (85.7) Number of subjects (%).

Question: And the “Post lumbar puncture syndrome” value (healthy subjects [2]; [10])?
Answer: Its value is 0 Number of subjects (%).

Question: And the Pruritus (healthy subjects [2]; [10])?
Answer: Its Pruritus is 3 (42.9) Number of subjects (%).

Question: And the Somnolence (healthy subjects [2]; [10])?
Answer: Its Somnolence is 2 (28.6) Number of subjects (%).

Question: And the “Total number of TEAEs” value (healthy subjects [2]; [10])?
Answer: Its value is 25.

Question: What about the Vomiting (healthy subjects [2]; [10]) of the same molecule?
Answer: The Vomiting was 0 Number of subjects (%).

Question: What about the Abnormal dreams (healthy subjects [2]; MAD Total TS‐134 (n = 47)) of the same molecule?
Answer: The Abnormal dreams was 2 (4.3) Number of subjects (%).

Question: What about the Dizziness (healthy subjects [2]; MAD Total TS‐134 (n = 47)) of the same molecule?
Answer: The Dizziness was 8 (17.0) Number of subjects (%).

Question: What about the Headache (healthy subjects [2]; MAD Total TS‐134 (n = 47)) of the same molecule?
Answer: Its Headache is 16 (34.0) Number of subjects (%).

Question: And the Insomnia (healthy subjects [2]; MAD Total TS‐134 (n = 47))?
Answer: The Insomnia was 4 (8.5) Number of subjects (%).

Question: What about the Nausea (healthy subjects [2]; MAD Total TS‐134 (n = 47)) of the same molecule?
Answer: The Nausea was 15 (31.9) Number of subjects (%).

Question: What about the “Number of subjects with at least 1 TEAE” value (healthy subjects [2]; MAD Total TS‐134 (n = 47)) of the same molecule?
Answer: The value was 36(76.6) Number of subjects (%).

Question: What about the “Post lumbar puncture syndrome” value (healthy subjects [2]; MAD Total TS‐134 (n = 47)) of the same molecule?
Answer: The value was 0 Number of subjects (%).

Question: And the Pruritus (healthy subjects [2]; MAD Total TS‐134 (n = 47))?
Answer: The Pruritus was 4 (8.5) Number of subjects (%).

Question: What about the Somnolence (healthy subjects [2]; MAD Total TS‐134 (n = 47)) of the same molecule?
Answer: The Somnolence was 9 (19.1) Number of subjects (%).

Question: And the “Total number of TEAEs” value (healthy subjects [2]; MAD Total TS‐134 (n = 47))?
Answer: The value was 125.

Question: What about the Vomiting (healthy subjects [2]; MAD Total TS‐134 (n = 47)) of the same molecule?
Answer: The Vomiting was 3 (6.4) Number of subjects (%).

Question: And the “discontinuations due to TEAEs” value (healthy subjects [2]; MAD study)?
Answer: The value was “no discontinuations due to TEAEs”.

Question: And the “reports of severe anxiety” value (healthy subjects [2]; [11])?
Answer: The value was 1 report.

Question: And the “reports of severe fatigue” value (healthy subjects [2]; [11])?
Answer: The value was 1 report.

Question: And the incidence of dizziness (healthy subjects [2]; MAD, total TS‐134 group)?
Answer: The incidence of dizziness was 17.0%.

Question: And the incidence of headache (healthy subjects [2]; MAD, total TS‐134 group)?
Answer: The incidence of headache was 34.0%.

Question: And the incidence of nausea (healthy subjects [2]; MAD, total TS‐134 group)?
Answer: Its incidence of nausea is 31.9%.

Question: And the incidence of somnolence (healthy subjects [2]; MAD, total TS‐134 group)?
Answer: Its incidence of somnolence is 19.1%.

Question: What about the incidence of vomiting (healthy subjects [2]; MAD, total TS‐134 group) of the same molecule?
Answer: Its incidence of vomiting is 6.4%.
